Article PMC12022973, “Proteomimetic Strategy for the Modulation of Intrinsically Disordered Protein MYC” (Journal of the American Chemical Society, 2025)
Starred links: 1 amine or outer side, 2 acyl side, 3 side chain; linkers in the order of their positions; H or OH if unused. Positions of bridges follow the written chain, without caps; N, C: chain ends. Residues, ends and D or L forms follow the SMILES beside them. Chains are numbered I, II in the order given. X1 = c1cc(C[*:1])ccc1COCc1ccc(C[*:2])cc1

Assays:
MYC/MAX complex = target: T1, MYC/MAX complex (Homo sapiens, UniProt P01106); experiment: Fluorescence polarization direct binding to the MYC/MAX complex; conditions: FP direct binding of fluorescein-labeled peptide to preformed MYC/MAX heterodimer; read-out: CHD^Max-1 Binding Affinity, Kd (MYC/MAX)
T1 construct: we used recombinant MYC protein (MYC^353–437); His6 (N)
Procedure: (§1) pET151-D-TOPO-cMyc vector was kindly provided by Dr. Edward Prochownik from the
(§2) Department of Pediatrics at UPMC Children’s Hospital of Pittsburgh. Expression and purification
(§3) of Myc353-437 were performed using an established protocol with minor modifications.7 BL21(DE3)
(§4) cells were used to express recombinant Myc353-437 protein. Bacteria were grown at 37 °C to OD600
(§5) of 0.8 followed by 1 mM IPTG induction and 16-18h growth at RT. Cells were harvested via
(§6) centrifugation at 4,000 rpm at 4 °C and the pellet was resuspended in 10 mL of lysis buffer (8 M
(§7) urea, 100 mM NaH2PO4, 10 mM Tris HCl, pH 8) supplemented with protease inhibitor cocktail
(§8) (PierceTM Protease Inhibitor Tablets) and benzonase nuclease. Suspensions were sonicated on
(§9) ice using a Branson Cell Disruptor 200 and centrifuged at 12,000 rpm for 45 min at 4 °C. Clarified
(§10) lysate was applied to a column containing pre-equilibrated HisPur Ni-NTA Superflow Agarose
(§11) (ThermoFisher Scientific) for overnight at 4 °C. The resin beads were washed with 10 mL of
(§12) additional lysis buffer followed by three washes of 10 mL wash buffer (8 M urea, 100 mM
NaH2PO4, 10 mM Tris HCl, 10 mM imidazole). The target protein was eluted with elution buffer (8 […]
Fluorescence Polarization Binding Assay […]
determined using fluorescence polarization-based direct binding assay. […]
from 10 μM into 15 nM of FITC-labeled peptide in assay buffer. KD was determined using the […]

[1] = target: T2, full-length His6-Max (MAX^1-160) (Homo sapiens, UniProt P61244); experiment: Fluorescence polarization direct binding to His6-MAX; conditions: FP direct binding; 15 nM FITC-labeled peptide; His6-MAX from 10 μM; 1X PBS, 1 mM DTT, 5% glycerol, 0.1% pluronic acid, pH 6.7; 25 °C
T2 construct: N.B. (MAX^1-160)
Procedure: (§13) Fluorescence Polarization Binding Assay
(§14) The relative affinities of FITC-CHDMax-1 to His6-Myc353-436 and full-length His6-Max were
(§15) determined using fluorescence polarization-based direct binding assay. The polarization
(§16) experiments were performed using a DTX 880 Multimode Detector (Beckman) at 25 °C with
(§17) excitation and emission wavelengths of 485 and 525 nm, respectively. Each polarization
(§18) experiment was performed in a 96-well round bottom plate (Greiner) in assay buffer: 1X PBS, 1
(§19) mM DTT, 5% glycerol, 0.1% pluronic acid, pH 6.7. The binding affinity (KD) values reported for
(§20) each peptide are from experiments performed in triplicate. Raw values were fit to a sigmoidal
(§21) dose-response nonlinear regression model in GraphPad Prism 6.0.
(§22) All binding experiments with FITC-labeled peptides to His6-Myc353-436 or His6-Max were performed
(§23) under the same conditions. Briefly, serial dilutions of His6-Myc353-436 and His6-Max were made
(§24) from 10 μM into 15 nM of FITC-labeled peptide in assay buffer. KD was determined using the
(§25) KD1 = (RT*(1-FSB) + LST*FSB2)/FSB-LST
(§26) RT = Total concentration of His6-Myc353-436 or His6-Max
(§27) LST = Total concentration of FITC-labeled peptide
(§28) FSB = Fraction of bound FITC-labeled peptide

[2] = target: T3, recombinant human MYC^353–437 protein (His6-MYC^353–437) (Homo sapiens, UniProt P01106); experiment: Fluorescence polarization direct binding of fluorescein-labeled CHDs to His6-MYC353-437; conditions: FP direct binding; 15 nM FITC-labeled peptide; His6-MYC serial dilutions from 10 μM; 1X PBS, 1 mM DTT, 5% glycerol, 0.1% pluronic acid, pH 6.7; 25 °C; triplicate; MYC aggregates above 5 μM; read-out: Binding Affinity MYC^353-436, Kd
T3 construct: recombinant human MYC^353–437 protein; made in house; host or cells: E. coli BL21(DE3), pET151-D-TOPO-cMyc vector
Procedure: as §1, §2, §3, §4, §5, §6, §7, §8, §9, §10, §11, §12
NaH2PO4, 10 mM Tris HCl, 10 mM imidazole). The target protein was eluted with elution buffer (8
M urea, 100 mM NaH2PO4, 10 mM Tris HCl, 250 mM imidazole) and buffer exchanged into 150
mM NaCl, 50 mM Tris HCl, 5% glycerol, pH 6.7. Protein was concentrated by ultra-filtration (3000
MWCO; Amicon Ultra-15 Centrifugal Filter units from EMD Millipore) followed by TEV cleavage
(1:100 w/w of protease to target protein) in 150 mM NaCl, 50 mM Tris HCl, 5% glycerol, pH 6.7
for 24 hrs at 4 °C. The cleaved protein is further purified by reverse-phase HPLC (gradient 10-60
acetonitrile/water with 0.1% TFA over 35 min) to remove TEV protease and un-cleaved protein.
Purified Myc353-437 was lyophilized and stored at -20 °C. Myc353-437 identity was characterized by
as §13, §14, §15, §16, §17, §18, §19, §20, §21, §22, §23, §24, §25, §26, §27, §28

T2 sequence (P61244 whole entry): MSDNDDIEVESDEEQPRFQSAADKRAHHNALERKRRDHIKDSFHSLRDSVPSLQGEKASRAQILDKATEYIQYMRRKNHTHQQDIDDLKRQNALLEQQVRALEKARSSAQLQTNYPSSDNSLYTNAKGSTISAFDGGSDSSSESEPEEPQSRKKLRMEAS
T3 sequence (P01106 368-452): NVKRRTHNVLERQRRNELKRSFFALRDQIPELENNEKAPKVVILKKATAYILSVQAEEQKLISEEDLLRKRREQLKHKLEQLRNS
T1 sequence (P01106 368-452): as above
T1 sequence (P61244 whole entry partner): as the sequence (P61244 whole entry) above

Kd (MYC/MAX complex): 460 ± 150 nM | CHD^Max-1 Binding Affinity, Kd (MAX^1-160) [1]: N.B. | Kd [2]: 350 ± 17 nM
Structure (SMILES): CC[C@H](C)[C@H](NC(=O)[C@H](CCCCN)NC(=O)[C@H](CCC(=O)O)NC(=O)[C@H](CCCNC(=N)N)NC(=O)[C@H](CC(C)C)NC(C)=O)C(=O)N[C@@H](C)C(=O)N[C@H](C(=O)N[C@@H](CC(C)C)C(=O)N[C@@H](CCC(N)=O)C(=O)N[C@@H](Cc1c[nH]c2ccccc12)C(=O)N[C@@H](CSCc1ccc(COCc2ccc(CSC[C@H](NC(=O)[C@H](CC(C)C)NC(=O)[C@H](CCC(=O)O)NC(=O)[C@H](CCC(=O)O)NC(=O)[C@@H](NC(=O)[C@H](CCC(=O)O)NC(=O)[C@H](Cc3c[nH]c4ccccc34)NC(=O)[C@H](CCC(N)=O)NC(=O)[C@H](Cc3c[nH]cn3)NC(=O)[C@@H](NC(=O)[C@H](CCC(=O)O)NC(=O)[C@H](CC(N)=O)NC(=O)[C@H](CCCCN)NC(=O)[C@H](CCCNC(=N)N)NC(=O)[C@H](CCCNC(=N)N)NC(=O)[C@H](CC(C)C)NC(C)=O)[C@@H](C)O)[C@@H](C)CC)C(N)=O)cc2)cc1)C(=O)N[C@H](C(=O)N[C@@H](CCC(=O)O)C(=O)N[C@@H](CCC(=O)O)C(=O)N[C@@H](CC(C)C)C(=O)N[C@@H](CCCNC(=N)N)C(=O)N[C@@H](CCCCN)C(N)=O)[C@@H](C)CC)[C@@H](C)O [CHD^Max-1] (I: Ac-LREKIATLQWCIEELRK-NH2 / II: Ac-LRRKNETHQWEIEELC-NH2; linker I:11-II:16 via X1)
